According to PubChem BioAssay (NCI):
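Exposure lasted 48 hours, with cells grown in 96-well plates and compounds tested at five concentrations. TGI denotes the concentration required for complete inhibition of growth.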 Peptide text beside a SMILES is read from it. * marks the point of attachment. OSu = O=C1CCC(=O)N1O*; OBn = c1ccc(CO*)cc1; Bn = c1ccc(C*)cc1

Key:
Assay in all cases: inhibition of tumour cell growth, NCI panel, 48 h
DU-145 prostate = tested on: DU-145 prostate
NCI-H226 lung = tested on: NCI-H226 lung
MALME-3M melanoma = tested on: MALME-3M melanoma
SF-539 CNS = tested on: SF-539 CNS
HCT-15 colon = tested on: HCT-15 colon
HCT-116 colon = tested on: HCT-116 colon
786-0 renal = tested on: 786-0 renal
NCI-H460 lung = tested on: NCI-H460 lung
CCRF-CEM leukemia = tested on: CCRF-CEM leukemia
MOLT-4 leukemia = tested on: MOLT-4 leukemia
SK-MEL-2 melanoma = tested on: SK-MEL-2 melanoma
HL-60(TB) leukemia = tested on: HL-60(TB) leukemia
A549 NSCLC = tested on: A549 NSCLC
SK-MEL-5 melanoma = tested on: SK-MEL-5 melanoma
SK-OV-3 ovarian = tested on: SK-OV-3 ovarian
MDA-MB-435 = tested on: MDA-MB-435
ACHN renal = tested on: ACHN renal
SF-295 CNS = tested on: SF-295 CNS
HS 578T breast = tested on: HS 578T breast
BT-549 breast = tested on: BT-549 breast
NCI-H23 lung = tested on: NCI-H23 lung
HOP-92 NSCLC = tested on: HOP-92 NSCLC
RXF 393 renal = tested on: RXF 393 renal
U251 CNS = tested on: U251 CNS
UACC-62 melanoma = tested on: UACC-62 melanoma
RPMI-8226 leukemia = tested on: RPMI-8226 leukemia
UACC-257 melanoma = tested on: UACC-257 melanoma
SNB-75 CNS = tested on: SNB-75 CNS
A498 renal = tested on: A498 renal
HCC-2998 colon = tested on: HCC-2998 colon
KM12 colon = tested on: KM12 colon
UO-31 renal = tested on: UO-31 renal
SN12C renal = tested on: SN12C renal
OVCAR-4 ovarian = tested on: OVCAR-4 ovarian
MDA-N = tested on: MDA-N
PC-3 prostate = tested on: PC-3 prostate
M14 melanoma = tested on: M14 melanoma
IGROV1 ovarian = tested on: IGROV1 ovarian
OVCAR-5 ovarian = tested on: OVCAR-5 ovarian
K-562 leukemia = tested on: K-562 leukemia
LOX IMVI melanoma = tested on: LOX IMVI melanoma
OVCAR-3 ovarian = tested on: OVCAR-3 ovarian
SW-620 colon = tested on: SW-620 colon
MCF7 breast = tested on: MCF7 breast
HT29 colon = tested on: HT29 colon
CAKI-1 renal = tested on: CAKI-1 renal
HOP-62 NSCLC = tested on: HOP-62 NSCLC
MDA-MB-231 breast = tested on: MDA-MB-231 breast
TK-10 renal = tested on: TK-10 renal
EKVX NSCLC = tested on: EKVX NSCLC
SF-268 CNS = tested on: SF-268 CNS
SNB-19 CNS = tested on: SNB-19 CNS
COLO 205 colon = tested on: COLO 205 colon
SK-MEL-28 melanoma = tested on: SK-MEL-28 melanoma
OVCAR-8 ovarian = tested on: OVCAR-8 ovarian
SR leukemia = tested on: SR leukemia
NCI-H522 lung = tested on: NCI-H522 lung
NCI/ADR-RES ovarian = tested on: NCI/ADR-RES ovarian

CC(C)=CCC/C(C)=C/CC/C(C)=C/CSc1ccc(Cl)cc1C(=O)O
TGI (DU-145 prostate): 56 µM | TGI (NCI-H226 lung): 36.8 µM | TGI (MALME-3M melanoma): 38.4 µM | TGI (SF-539 CNS): 36.4 µM | TGI (HCT-15 colon): 34.7 µM | TGI (HCT-116 colon): 31.6 µM | TGI (786-0 renal): 30.8 µM | TGI (NCI-H460 lung): 32.7 µM | TGI (CCRF-CEM leukemia): 48.9 µM | TGI (MOLT-4 leukemia): 49.9 µM | TGI (SK-MEL-2 melanoma): 28.8 µM | TGI (HL-60(TB) leukemia): 50.8 µM | TGI (A549 NSCLC): 30.3 µM | TGI (SK-MEL-5 melanoma): 44.9 µM | TGI (SK-OV-3 ovarian): 31.1 µM | TGI (MDA-MB-435): 42.2 µM | TGI (ACHN renal): 35.9 µM | TGI (SF-295 CNS): 31.4 µM | TGI (HS 578T breast): 49.7 µM | TGI (BT-549 breast): 37.5 µM | TGI (NCI-H23 lung): 34.9 µM | TGI (HOP-92 NSCLC): 45.2 µM | TGI (RXF 393 renal): 44.6 µM | TGI (U251 CNS): 34.7 µM | TGI (UACC-62 melanoma): 34.7 µM | TGI (RPMI-8226 leukemia): 55.6 µM | TGI (UACC-257 melanoma): 82.2 µM | TGI (SNB-75 CNS): 34.3 µM | TGI (A498 renal): 38.7 µM | TGI (HCC-2998 colon): 34.7 µM | TGI (KM12 colon): 32.3 µM | TGI (UO-31 renal): 31.4 µM | TGI (SN12C renal): 48 µM | TGI (OVCAR-4 ovarian): 86.8 µM | TGI (MDA-N): 60.3 µM | TGI (PC-3 prostate): 29.7 µM | TGI (M14 melanoma): 36.5 µM | TGI (IGROV1 ovarian): 34.8 µM | TGI (OVCAR-5 ovarian): 36.9 µM | TGI (K-562 leukemia): 64.9 µM | TGI (LOX IMVI melanoma): 32 µM | TGI (OVCAR-3 ovarian): 30.7 µM | TGI (SW-620 colon): 46.9 µM | TGI (MCF7 breast): 32.8 µM | TGI (HT29 colon): 37.4 µM | TGI (CAKI-1 renal): 43.5 µM | TGI (HOP-62 NSCLC): 28.1 µM | TGI (MDA-MB-231 breast): 63.4 µM | TGI (TK-10 renal): 37.6 µM | TGI (EKVX NSCLC): 37 µM | TGI (SF-268 CNS): 32.7 µM | TGI (SNB-19 CNS): 34.4 µM | TGI (COLO 205 colon): 51.6 µM | TGI (SK-MEL-28 melanoma): 33.9 µM | TGI (OVCAR-8 ovarian): 42.1 µM

CC(C)CC(NC(=O)C(N)CCC(=O)OCc1ccccc1)C(=O)NC(COCc1ccccc1)C(=O)NC(Cc1ccccc1)C(=O)ON1C(=O)CCC1=O (configuration not stated) (H-E(OBn)LS(Bn)F-OSu; configuration not given here)
TGI (DU-145 prostate): > 100 µM | TGI (MALME-3M melanoma): 96.1 µM | TGI (HCT-116 colon): 33.1 µM | TGI (786-0 renal): > 100 µM | TGI (NCI-H460 lung): 71.8 µM | TGI (CCRF-CEM leukemia): 82.1 µM | TGI (MOLT-4 leukemia): 62.8 µM | TGI (SR leukemia): 85.4 µM | TGI (NCI-H522 lung): 47.8 µM | TGI (SK-MEL-2 melanoma): 65.6 µM | TGI (A549 NSCLC): > 100 µM | TGI (SK-MEL-5 melanoma): 35.8 µM | TGI (SK-OV-3 ovarian): 87.8 µM | TGI (MDA-MB-435): > 100 µM | TGI (ACHN renal): > 100 µM | TGI (SF-295 CNS): 62.7 µM | TGI (HS 578T breast): 76.1 µM | TGI (NCI-H23 lung): 54.3 µM | TGI (HOP-92 NSCLC): 39.8 µM | TGI (RXF 393 renal): 78.2 µM | TGI (U251 CNS): 68.5 µM | TGI (UACC-62 melanoma): 70 µM | TGI (RPMI-8226 leukemia): 61.4 µM | TGI (UACC-257 melanoma): 66.1 µM | TGI (SNB-75 CNS): > 100 µM | TGI (KM12 colon): > 100 µM | TGI (UO-31 renal): 59 µM | TGI (SN12C renal): > 100 µM | TGI (OVCAR-4 ovarian): > 100 µM | TGI (NCI/ADR-RES ovarian): 85.3 µM | TGI (MDA-N): 47.6 µM | TGI (PC-3 prostate): 63.2 µM | TGI (M14 melanoma): > 100 µM | TGI (IGROV1 ovarian): 72.6 µM | TGI (OVCAR-5 ovarian): 66.9 µM | TGI (LOX IMVI melanoma): 50.7 µM | TGI (SW-620 colon): > 100 µM | TGI (MCF7 breast): 78.5 µM | TGI (HT29 colon): > 100 µM | TGI (CAKI-1 renal): 64 µM | TGI (MDA-MB-231 breast): 40 µM | TGI (TK-10 renal): 73.8 µM | TGI (EKVX NSCLC): > 100 µM | TGI (SF-268 CNS): > 100 µM | TGI (SNB-19 CNS): 95.1 µM | TGI (SK-MEL-28 melanoma): 68.6 µM | TGI (OVCAR-8 ovarian): > 100 µM
